“And” between values parts separate entries of the source, which are not always exact repeats. Equal values may be shown once. Toxic doses and inconclusive results are not listed. Rule for the calls: active = survival T/C of 150% or more; inactive = T/C below 125% in these data. Peptide text beside a SMILES is read from it. * marks the point of attachment. Boc = CC(C)(C)OC(=O)*
Test system: P388 leukemia ip, CD2F1 mice, survival T/C
Experiment: NCI In Vivo Anticancer Drug Screen. Data for tumor model P388 Leukemia (intraperitoneal) in CD2F1 (CDF1) mice
Conditions: endpoint: median survival time, higher = longer survival
In short: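 Mice carrying the transplanted tumor received test compound or vehicle. Survival was recorded in each group, and the value is the treated-group measurement divided by that of the vehicle-treated control group.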

[1] = dose: 6.25 mg/kg/injection, schedule: Q01DX009 (ip), vehicle: saline
[2] = dose: 12.5 mg/kg/injection, schedule: Q01DX009 (ip), vehicle: saline
[3] = dose: 25.0 mg/kg/injection, schedule: Q01DX009 (ip), vehicle: saline
[4] = dose: 50.0 mg/kg/injection, schedule: Q01DX005 (ip), vehicle: saline with Tween-80
[5] = dose: 100.0 mg/kg/injection, schedule: Q01DX005 (ip), vehicle: saline with Tween-80
[6] = dose: 12.5 mg/kg/injection, schedule: Q01DX009 (ip), vehicle: saline with Tween-80
[7] = dose: 25.0 mg/kg/injection, schedule: Q01DX009 (ip), vehicle: saline with Tween-80
[8] = dose: 50.0 mg/kg/injection, schedule: Q01DX009 (ip), vehicle: saline with Tween-80
[9] = dose: 100.0 mg/kg/injection, schedule: Q01DX009 (ip), vehicle: saline with Tween-80
[10] = dose: 200.0 mg/kg/injection, schedule: Q01DX005 (ip), vehicle: Klucel (hydroxypropylcellulose) (HPC)
[11] = dose: 50.0 mg/kg/injection, schedule: Q01DX005 (ip), vehicle: Klucel (hydroxypropylcellulose) (HPC)
[12] = dose: 100.0 mg/kg/injection, schedule: Q01DX005 (ip), vehicle: Klucel (hydroxypropylcellulose) (HPC)
[13] = dose: 25.0 mg/kg/injection, schedule: Q01DX005 (ip), vehicle: Klucel (hydroxypropylcellulose) (HPC)
[14] = dose: 60.0 mg/kg/injection, schedule: Q01DX005 (ip), vehicle: saline with Tween-80
[15] = dose: 120.0 mg/kg/injection, schedule: Q01DX005 (ip), vehicle: saline with Tween-80
[16] = dose: 240.0 mg/kg/injection, schedule: Q01DX005 (ip), vehicle: saline with Tween-80
[17] = dose: 100.0 mg/kg/injection, schedule: Q01DX001 (ip), vehicle: saline with Tween-80
[18] = dose: 200.0 mg/kg/injection, schedule: Q01DX001 (ip), vehicle: saline with Tween-80
[19] = dose: 400.0 mg/kg/injection, schedule: Q01DX001 (ip), vehicle: saline with Tween-80
[20] = dose: 50.0 mg/kg/injection, schedule: Q01DX009 (ip), vehicle: saline
[21] = dose: 100.0 mg/kg/injection, schedule: Q01DX009 (ip), vehicle: saline
[22] = dose: 200.0 mg/kg/injection, schedule: Q01DX009 (ip), vehicle: saline

Measured: T/C

CC1CN1P(=O)(N1CC2CCC(CC2)C1)N1CC1C (stereo not drawn)
inactive: [1] 109 % of control | [2] 95 % of control | [3] 104 % of control | dose: 100.0 mg/kg/injection, schedule: Q04DX003 (ip), vehicle: saline with Tween-80 122 % of control | dose: 200.0 mg/kg/injection, schedule: Q04DX003 (ip), vehicle: saline with Tween-80 90 % of control

C[N+]1(C)CCC(=O)C(c2ccccc2)C1 (stereo not drawn)
inactive: dose: 50.0 mg/kg/injection, schedule: Q04DX003 (ip), vehicle: saline 113 % of control | dose: 100.0 mg/kg/injection, schedule: Q04DX003 (ip), vehicle: saline 113 % of control

CNC(=S)SC1=NS(=O)(=O)c2ccccc2N1
inactive: dose: 30.0 mg/kg/injection, schedule: Q01DX005 (ip), vehicle: Klucel (hydroxypropylcellulose) (HPC) 111 % of control | dose: 60.0 mg/kg/injection, schedule: Q01DX005 (ip), vehicle: Klucel (hydroxypropylcellulose) (HPC) 99 % of control and 110 % of control | dose: 120.0 mg/kg/injection, schedule: Q01DX005 (ip), vehicle: Klucel (hydroxypropylcellulose) (HPC) 116 % of control and 117 % of control

CC1(C)CCC2=C(O1)c1ccccc1C(=O)C2=O
inactive: dose: 12.5 mg/kg/injection, schedule: Q01DX009 (ip), vehicle: Klucel (hydroxypropylcellulose) (HPC) 96 % of control | dose: 25.0 mg/kg/injection, schedule: Q01DX009 (ip), vehicle: Klucel (hydroxypropylcellulose) (HPC) 105 % of control and 94 % of control | dose: 50.0 mg/kg/injection, schedule: Q01DX009 (ip), vehicle: Klucel (hydroxypropylcellulose) (HPC) 114 % of control and 96 % of control | dose: 100.0 mg/kg/injection, schedule: Q01DX009 (ip), vehicle: Klucel (hydroxypropylcellulose) (HPC) 115 % of control

CCC(C)n1c(C)nc2c(N)cc(C(F)(F)F)cc21 (stereo not drawn)
inactive: [4] 97 % of control | [5] 91 % of control | dose: 200.0 mg/kg/injection, schedule: Q01DX005 (ip), vehicle: saline with Tween-80 102 % of control

Cc1c(-c2ccccc2)ccnc1/C=N/NC(=S)NCc1cccnc1
inactive: [6] 98 % of control | [7] 96 % of control | [8] 111 % of control and 122 % of control | [9] 88 % of control

C=CC(c1ccccc1)C(O)(Cc1ccccc1)Cc1ccccc1 (stereo not drawn)
inactive: dose: 6.25 mg/kg/injection, schedule: Q01DX009 (ip), vehicle: DMSO 104 % of control | dose: 12.5 mg/kg/injection, schedule: Q01DX009 (ip), vehicle: DMSO 99 % of control | dose: 25.0 mg/kg/injection, schedule: Q01DX009 (ip), vehicle: DMSO 95 % of control

COc1ccc2ncc(CO)c(CO)c2c1
inactive: [10] 100 % of control

CC(C)CN(CC(C)C)CN(CC(C)C)CC(C)C
inactive: [4] 100 % of control | [5] 119 % of control

O=C(O)/C=C\C(=O)Nc1ccccn1
inactive: dose: 5.0 mg/kg/injection, schedule: Q01DX009 (ip), vehicle: saline with Tween-80 109 % of control | dose: 5.0 mg/kg/injection, schedule: Q01DX009 (ip), vehicle: saline 100 % of control | dose: 10.0 mg/kg/injection, schedule: Q01DX009 (ip), vehicle: saline with Tween-80 100 % of control | dose: 10.0 mg/kg/injection, schedule: Q01DX009 (ip), vehicle: saline 105 % of control | dose: 20.0 mg/kg/injection, schedule: Q01DX009 (ip), vehicle: saline with Tween-80 104 % of control | dose: 30.0 mg/kg/injection, schedule: Q01DX009 (ip), vehicle: saline 105 % of control | dose: 60.0 mg/kg/injection, schedule: Q01DX009 (ip), vehicle: saline 100 % of control

CN1C(=O)C(CCCN=C(N)N)NC1=S (stereo not drawn)
inactive: dose: 60.0 mg/kg/injection, schedule: Q01DX005 (ip), vehicle: saline 98 % of control | dose: 120.0 mg/kg/injection, schedule: Q01DX005 (ip), vehicle: saline 111 % of control | dose: 240.0 mg/kg/injection, schedule: Q01DX005 (ip), vehicle: saline 104 % of control

CSCCC(NC(=O)C(CC(C)C)NC(=O)OC(C)(C)C)C(N)=O (stereo not drawn) (Boc-Leu-Met-NH2; configuration not given here)
inactive: [11] 98 % of control | [12] 91 % of control | [10] 95 % of control

O=C1CC(SC(=S)N2CCOCC2)C(=O)N1 (stereo not drawn)
inactive: dose: 100.0 mg/kg/injection, schedule: Q04DX002 (ip), vehicle: saline 99 % of control and 103 % of control | dose: 200.0 mg/kg/injection, schedule: Q04DX002 (ip), vehicle: saline 99 % of control and 97 % of control | dose: 400.0 mg/kg/injection, schedule: Q04DX002 (ip), vehicle: saline 100 % of control and 109 % of control

C=CC1C(OC2OC(CO)C(O)C(O)C2O)OC=C(C(=O)OC)C1CC1CC(=O)CC(CC(=O)CCc2ccc(O)cc2)O1 (stereo not drawn)
inactive: dose: 18.75 mg/kg/injection, schedule: Q01DX005 (ip), vehicle: water 98 % of control | dose: 37.5 mg/kg/injection, schedule: Q01DX005 (ip), vehicle: water 101 % of control | dose: 75.0 mg/kg/injection, schedule: Q01DX005 (ip), vehicle: water 101 % of control | dose: 150.0 mg/kg/injection, schedule: Q01DX005 (ip), vehicle: water 101 % of control

O=C1/C(=C/c2cccc(F)c2)SC(=S)N1C1CC1
inactive: dose: 6.25 mg/kg/injection, schedule: Q01DX005 (ip), vehicle: Klucel (hydroxypropylcellulose) (HPC) 96 % of control | dose: 12.5 mg/kg/injection, schedule: Q01DX005 (ip), vehicle: Klucel (hydroxypropylcellulose) (HPC) 96 % of control | [13] 99 % of control | [11] 94 % of control | [12] 92 % of control | [10] 87 % of control

COc1ccc(Oc2c(OC)cc(NCc3ccc(CN)cc3)c3ncccc23)cc1
inactive: [6] 110 % of control | [7] 109 % of control | [8] 109 % of control

C/C(=C1/SC(=S)NC1=O)c1ccc(Cl)c(O)c1
inactive: [14] 99 % of control | [15] 97 % of control | [16] 88 % of control

O=C1NC(=S)N/C1=C/c1ccc2c(c1)CCC2
inactive: [17] 100 % of control | [18] 100 % of control | [19] 95 % of control

COC(=O)c1[nH]c(=O)c(C#N)c(C(=O)OC)c1C(=O)c1ccncc1
inactive: [4] 95 % of control | [5] 92 % of control

N=C(N)SCc1csc(N)n1
inactive: [3] 105 % of control | [20] 102 % of control | [21] 109 % of control | [22] 108 % of control

C[Si]1(C)CC[Si](C)(C)OS(=O)(=O)O1
inactive: dose: 27.5 mg/kg/injection, schedule: Q01DX005 (ip), vehicle: Klucel (hydroxypropylcellulose) (HPC) 102 % of control | dose: 55.0 mg/kg/injection, schedule: Q01DX005 (ip), vehicle: Klucel (hydroxypropylcellulose) (HPC) 100 % of control

COc1cccc(/C=N/NC(=S)Nc2cc(C(F)(F)F)cc(C(F)(F)F)c2)c1O
inactive: [13] 93 % of control | [11] 100 % of control and 93 % of control

CCCCCCC(=O)/C=C/c1ccc(OC(=O)c2ccc(Cl)cc2)cc1
inactive: [1] 97 % of control | [2] 94 % of control | [3] 94 % of control | [21] 92 % of control | [22] 92 % of control

COP(=O)(OC)OC.COP(=O)(OC)OC.COP(=O)(OC)OC.COP(=O)(OC)OC.COP(=O)(OC)OC.[O-][Cl+3]([O-])([O-])O.[Zn+2]
inactive: [3] 104 % of control and 114 % of control | [20] 106 % of control and 112 % of control (2×) | [21] 118 % of control and 119 % of control and 123 % of control

Clc1cnc(/N=C/c2ccc(/C=N/c3ncc(Cl)cc3Cl)cc2)c(Cl)c1
inactive: [20] 100 % of control | [21] 101 % of control | [22] 102 % of control

C(=C\C1CC2CCCN2O1)/c1ccccc1 (stereo not drawn)
inactive: [7] 90 % of control | [8] 105 % of control | [9] 100 % of control | dose: 200.0 mg/kg/injection, schedule: Q01DX009 (ip), vehicle: saline with Tween-80 107 % of control

Cc1ccc(NC(=O)N2CCCCC2)cc1NC(=O)N1CCCCC1
inactive: [14] 94 % of control | [15] 91 % of control | [16] 88 % of control

CC(C)N1C(=O)C2C3C=CC(C2C1=O)C1C2C(=O)N(C(C)C)C(=O)C2C31 (stereo not drawn)
inactive: [17] 99 % of control | [18] 96 % of control | [19] 89 % of control

From PubChem BioAssay AID330 (DTP/NCI, 2004)
